Reference: publication PMC7093416, “Selective USP7 inhibition elicits cancer cell killing through a p53-dependent mechanism” (Scientific Reports, 2020)
Values joined by “and” are separate entries in the source; they are usually repeats but may differ in a detail not shown here. Equal values may be shown once.

System: panel of 484 cancer cell lines
Assay: PRISM cancer cell line profiling, 5 days
Assay type: cell-based
Parameters: Viability: scale not given here; AUC: unit not given beside the values
Method: Cancer cell line profiling was performed using the Broad’s PRISM platform. Cell treatment and data analysis were performed as described in Yu et al[42]. Raw Luminex signal was converted to AUC values for each cell line as described. The resulting AUC profile for each compound was modeled against DepMap using the limma package in R[71]. Because hotspot mutation analysis was performed against DepMap, TP53 annotations in Fig. 6c,d are directly from DepMap.

[1] = HEC59_ENDOMETRIUM, pert_dose 6.10E-04
[2] = HEC108_ENDOMETRIUM, pert_dose 6.10E-04
[3] = HEC151_ENDOMETRIUM, pert_dose 6.10E-04
[4] = HEP3B217_LIVER, pert_dose 6.10E-04
[5] = HEYA8_OVARY, pert_dose 6.10E-04
[6] = HPAC_PANCREAS, pert_dose 6.10E-04
[7] = HS294T_SKIN, pert_dose 6.10E-04
[8] = HS618T_LUNG, pert_dose 6.10E-04
[9] = HS729_SOFT_TISSUE, pert_dose 6.10E-04
[10] = HS766T_PANCREAS, pert_dose 6.10E-04
[11] = HS852T_SKIN, pert_dose 6.10E-04
[12] = HS939T_SKIN, pert_dose 6.10E-04
[13] = HSC2_UPPER_AERODIGESTIVE_TRACT, pert_dose 6.10E-04
[14] = HSC3_UPPER_AERODIGESTIVE_TRACT, pert_dose 6.10E-04
[15] = HT29_LARGE_INTESTINE, pert_dose 6.10E-04
[16] = HT55_LARGE_INTESTINE, pert_dose 6.10E-04
[17] = HUCCT1_BILIARY_TRACT, pert_dose 6.10E-04
[18] = HUH28_BILIARY_TRACT, pert_dose 6.10E-04
[19] = IGROV1_OVARY, pert_dose 6.10E-04
[20] = IPC298_SKIN, pert_dose 6.10E-04

## COc1ccc(C2=N[C@@H](c3ccc(Cl)cc3)[C@@H](c3ccc(Cl)cc3)N2C(=O)N2CCNC(=O)C2)c(OC(C)C)c1 [Nutlin-3A]
HEC59_ENDOMETRIUM
  AUC: 1.062
[1]
  MFI HEC59_ENDOMETRIUM: 10418.5 and 8852 and 7376 and 10636 and 7469
  Viability: 1.236
HEC108_ENDOMETRIUM
  AUC: 0.9813
[2]
  MFI HEC108_ENDOMETRIUM: 22169.5 and 21680 and 21571 and 20999 and 14974
  Viability: 1.448
HEC151_ENDOMETRIUM
  AUC: 0.8923
[3]
  MFI HEC151_ENDOMETRIUM: 15512 and 13471 and 16551 and 13036 and 13374
  Viability: 1.158
HEC251_ENDOMETRIUM
  AUC: 1.051
HEC265_ENDOMETRIUM
  AUC: 0.862
HEC265_ENDOMETRIUM, pert_dose 6.10E-04
  Viability: 1.3422
HEP3B217_LIVER
  AUC: 1.168
[4]
  MFI HEP3B217_LIVER: 4895 and 4355 and 5398 and 5541 and 7085.5
  Viability: 1.05
HEYA8_OVARY
  AUC: 0.8732
[5]
  MFI HEYA8_OVARY: 14485.5 and 11701.5 and 12129 and 10947 and 12823
  Viability: 1.321
HGC27_STOMACH
  AUC: 1.116
HLF_LIVER
  AUC: 1.153
HMC18_BREAST
  AUC: 1.214
HMC18_BREAST, pert_dose 6.10E-04
  MFI HMC18_BREAST: 29555.5 and 31726 and 28535 and 27291 and 25031.5
HOS_BONE
  AUC: 1.0473
HOS_BONE, pert_dose 6.10E-04
  MFI HOS_BONE: 25115 and 17203.5 and 23311.5 and 23304 and 24478
  Viability: 1.257
HPAC_PANCREAS
  AUC: 1.491
[6]
  MFI HPAC_PANCREAS: 14040 and 13836.5 and 12138 and 14386 and 13656
  Viability: 1.593
HS294T_SKIN
  AUC: 0.8649
[7]
  MFI HS294T_SKIN: 15509 and 11081.5 and 12624.5 and 16477 and 13812.5
  Viability: 1.3841
HS618T_LUNG
  AUC: 1.119
[8]
  MFI HS618T_LUNG: 423.5 and 422.5 and 583 and 491 and 486.5
  Viability: 1.131
HS729_SOFT_TISSUE
  AUC: 1.053
[9]
  MFI HS729_SOFT_TISSUE: 5267.5 and 3467.5 and 6111 and 4197 and 4598
  Viability: 1.333
HS766T_PANCREAS
  AUC: 1.165
[10]
  MFI HS766T_PANCREAS: 2873 and 4107.5 and 4713 and 3779 and 3684
  Viability: 0.8691
HS852T_SKIN
  AUC: 0.95
[11]
  MFI HS852T_SKIN: 952 and 665.5 and 666.5 and 706 and 781.5
  Viability: 1.404
HS939T_SKIN
  AUC: 0.8847
[12]
  MFI HS939T_SKIN: 1676 and 1756.5 and 2260 and 2253 and 2240
  Viability: 0.6815
HS944T_SKIN
  AUC: 1.082
HSC2_UPPER_AERODIGESTIVE_TRACT
  AUC: 0.986
[13]
  MFI HSC2_UPPER_AERODIGESTIVE_TRACT: 16228 and 12093.5 and 8568 and 11207.5 and 10414
  Viability: 1.409
HSC3_UPPER_AERODIGESTIVE_TRACT
  AUC: 1.141
[14]
  MFI HSC3_UPPER_AERODIGESTIVE_TRACT: 19468 and 21785 and 24258 and 21275 and 18776
  Viability: 1.0036
HT29_LARGE_INTESTINE
  AUC: 1.34
[15]
  MFI HT29_LARGE_INTESTINE: 15605 and 16428.5 and 18104 and 14824 and 17298
  Viability: 1.215
HT55_LARGE_INTESTINE
  AUC: 1.149
[16]
  MFI HT55_LARGE_INTESTINE: 18343 and 20659.5 and 20881.5 and 14879 and 18638
  Viability: 1.081
HT144_SKIN
  AUC: 0.8778
HT1080_SOFT_TISSUE
  AUC: 0.7842
HT1376_URINARY_TRACT
  AUC: 1.193
HUCCT1_BILIARY_TRACT
  AUC: 1.095
[17]
  MFI HUCCT1_BILIARY_TRACT: 24976 and 22701 and 21301.5 and 24041 and 22645
  Viability: 1.1214
HUH6_LIVER
  AUC: 1.038
HUH6_LIVER, pert_dose 6.10E-04
  MFI HUH6_LIVER: 2954 and 3148.5 and 3422 and 2906 and 2817
  Viability: 1.443
HUH7_LIVER
  AUC: 1.414
HUH7_LIVER, pert_dose 6.10E-04
  MFI HUH7_LIVER: 2519 and 3872.5 and 2817 and 4186 and 2978
  Viability: 1.154
HUH28_BILIARY_TRACT
  AUC: 1.075
[18]
  MFI HUH28_BILIARY_TRACT: 10419.5 and 14552 and 18877 and 11771 and 16814
  Viability: 1.064
HUPT3_PANCREAS
  AUC: 1.108
HUPT3_PANCREAS, pert_dose 6.10E-04
  MFI HUPT3_PANCREAS: 6399 and 3235.5 and 3378 and 3719 and 5662
IALM_LUNG
  AUC: 1.093
IALM_LUNG, pert_dose 6.10E-04
  MFI IALM_LUNG: 15214 and 17539 and 16640 and 15373 and 14718
  Viability: 0.9343
IGR1_SKIN
  AUC: 0.9397
IGR1_SKIN, pert_dose 6.10E-04
  MFI IGR1_SKIN: 9685 and 12749 and 10992 and 10674 and 10187.5
  Viability: 1.096
IGR37_SKIN
  AUC: 1.088
IGR37_SKIN, pert_dose 6.10E-04
  Viability: 0.7539
IGROV1_OVARY
  AUC: 0.9652
[19]
  MFI IGROV1_OVARY: 16733 and 14037 and 9860 and 14121 and 11292
  Viability: 1.232
IM95_STOMACH
  AUC: 0.8918
IPC298_SKIN
  AUC: 1.102
[20]
  MFI IPC298_SKIN: 24999 and 31830 and 20542 and 28455.5 and 32422
  Viability: 1.1324
ISHIKAWAHERAKLIO02ER_ENDOMETRIUM
  AUC: 1.148
